Counter-ions that a name gives are not always drawn.
Tests used:
Assay type in all cases: in vivo
[1] = test system: Cotton Aphid (Aphis gossypii); test: Test (foliar spraying) for controlling cotton aphid; conditions: 120 h, 5 days after treatment; for mortality at 200 ppm: foliar spraying on cucumber leaf
Protocol: A cucumber leaf cut to a diameter of 3.5 cm was placed on cotton wool moistened with water. Two adult cotton aphids were released there for offspring for 24 hours and the adult insects were then removed. […] After air-drying, the sample with cotton wool was placed in a plastic cup, which was covered with a lid and kept in a chamber at a constant temperature of 25° C. for rearing.

[2] = test system: Brown Planthopper (Nilaparvata lugens); test: Test (foliar dipping) for controlling brown planthopper; conditions: 120 h, rice seedlings dipped, 5 days after treatment; for mortality at 200 ppm: third instar larvae
Protocol: […] After air-drying, the rice seedlings held with urethane in a glass cylinder having an inner diameter of 4.5 cm and a length of 14 cm were set up in a plastic cup containing 40 mL of water. Larvae of brown planthoppers in the third instar larva were released there. The cylinder was covered with a lid of medicine paper and kept in a chamber at a constant temperature of 25° C. for rearing.

[3] = test system: Southern Yellow thrips (Thrips palmi); test: Test (foliar spraying) for controlling southern yellow thrips; conditions: 3 days after treatment; for mortality at 200 ppm: 72 h, foliar spraying on cucumber leaf, first instar larvae; for Mortality of Thrips palmi (%): foliar spraying
Protocol: A cucumber leaf cut to a diameter of 1.5 cm was placed on cotton wool moistened with water. […] After air-drying, 5 larvae of southern yellow thrips in the first instar larva were released there. The sample with cotton wool was placed in a plastic cup, which was covered with a lid and kept in a chamber at a constant temperature of 25° C. for rearing.

[4] = test system: Brown Planthopper (Nilaparvata lugens); test: Test (root dipping) for controlling brown planthopper; conditions: 5 days after treatment
Protocol: (§1) Ten sampled rice seedlings held with urethane in a glass cylinder having an inner diameter of 4.5 cm and a length of 14 cm were set up in a plastic cup containing 40 mL of chemical solution diluted to a desired concentration. After 2 days, 10 larvae of brown planthoppers in the third instar larva were released in the glass cylinder. The glass cylinder was covered with a lid of medicine paper and kept in a chamber at a constant temperature of 25° C. for rearing.

[5] = test system: Brown Planthopper (Nilaparvata lugens); test: Residual effect test (field experiment) for brown planthopper
Protocol: The roots of five sampled rice seedlings were washed with water. Subsequently, 25 mg of the wettable powder prepared in accordance with Formulation Example 2 described above was wrapped in the roots. Each strain was made from the five seedlings. In outdoor artificial paddy fields made from wooden frames having a size of 60 cm by 90 cm, 10 strains were planted, respectively. The artificial paddy field was shielded by an insect screen with a mesh size of 1 mm, so that invasion of harmful insects from the outside was prevented. Into the test system, 40 to 100 adult brown planthoppers were released at fixed intervals so as to cause damage to the rice. On 16 to 51 days after the treatment, the numbers of surviving insects and dead insects were measured to calculate the density index. The density index was obtained from the following expression.

[6] = test system: Inedorooimushi (Oulema oryzae); test: Test (pot test) for controlling inedorooimushi; conditions: larvae released 20 days after treatment, 2 days after release
Protocol: The roots of five sampled rice seedlings were washed with water. The wettable powder prepared in accordance with Formulation Example 2 described above was wrapped in the roots to be planted in a Wagner pot of 1/10000 a. After 20 days from the treatment, 3 larvae of inedorooimushi in the late instar larva were released per strain and reared in a plastic greenhouse with a room temperature set at 25° C. On 2 days after the releasing of the insects, the mortality of the insect was calculated.

[7] = test system: Brown Winged Green Stink Bug (Plautia stali); test: Test (greenhouse test) for controlling brown winged green stink bug; conditions: 100 ppm sprayed on apple fruit
Protocol: Using a commercially available hand spray, a chemical solution diluted to a concentration of 100 ppm was sprayed onto an apple fruit (cultivar: Fuji). After air-drying, the apple fruit was placed in a plastic cup, which was allowed to stand still for a specified number of […] in a plastic greenhouse with a room temperature set at 25° C. and with the natural light shining thereon. On 7 days after the treatment, 5 adult brown winged green stink bugs (without distinction between male and female) were released onto the treated fruit. On 4 days after the release of insects, the numbers of death and abnormality were observed and recorded. Triple system. Also, the fruit after examination was immersed in an acidic 0.5% fuchsine solution for 30 minutes, and then washed with water to measure the total number of sapping scars.

[8] = test system: Rice Stem Borer (Chilo suppressalis); test: Test (pot test) for controlling rice stem borer; conditions: 14 days after treatment
Protocol: The roots of five sampled rice seedlings were washed with water. The wettable powder prepared in accordance with Formulation Example 2 described above was wrapped in the roots to be planted in a Wagner pot of 1/10000 a. After 4 days from the treatment, a total of […] of rice stem borer were released per strain and reared in a plastic greenhouse with a room temperature set at 25° C. On 14 days after the treatment, the ratio of browning stem of seedlings for each strain and the ratio to untreated ones were calculated. Double system.

[9] = test system: Rice Leaf Beetle (Oulema oryzae); test: Test (root dipping) for controlling rice leaf beetle; conditions: 1.6 ppm, root dipping of rice seedlings, late instar larvae released after 2 days, 4 days after treatment
Protocol: as §1, with “4” for “10”, “rice leaf beetle” for “brown planthoppers”, “late” for “third”

[10] = After 16 days, 25 mg wettable powder (Formulation Example 2) at roots per strain, outdoor artificial paddy field
[11] = After 23 days, 25 mg wettable powder at roots per strain, artificial paddy field
[12] = After 30 days, 25 mg wettable powder at roots per strain, artificial paddy field
[13] = After 37 days, 25 mg wettable powder at roots per strain, artificial paddy field
[14] = After 44 days, 25 mg wettable powder at roots per strain, artificial paddy field
[15] = After 51 days, 25 mg wettable powder at roots per strain, artificial paddy field
[16] = 5 adults released 7 days after treatment, triple system, 4 days after release

Cc1cccc(-c2c([O-])[n+](CCCCCCCC#N)c3ccccn3c2=O)c1 [Comparative compound 1]
mortality at 200 ppm [1]: 0%

Cc1cccc(-c2c([O-])[n+](CCCCCC#N)c3ccccn3c2=O)c1 [Comparative compound 2]
mortality at 50 ppm ([1]; foliar spraying): 0% | mortality at 200 ppm [1]: 20%

Cc1cccc(-c2c([O-])[n+](CCCCC#N)c3ccccn3c2=O)c1 [Comparative compound 3]
mortality at 12.5 ppm ([1]; foliar spraying): 0% | mortality at 50 ppm ([1]; foliar spraying): 40% | mortality at 200 ppm [1]: 100%

N#CCCC[n+]1c([O-])c(-c2cccc(C(F)(F)F)c2)c(=O)n2ccccc21 [Comparative compound 4]
mortality at 3.1 ppm ([1]; foliar spraying): 0% | mortality at 12.5 ppm ([1]; foliar spraying): 75%

N#CC[n+]1c([O-])c(-c2cccc(C(F)(F)F)c2)c(=O)n2ccccc21 [Comparative compound 5]
mortality at 3.1 ppm ([1]; foliar spraying): 0% | mortality at 12.5 ppm ([1]; foliar spraying): 10%

CC(C#N)C[n+]1c([O-])c(-c2cccc(C(F)(F)F)c2)c(=O)n2ccccc21 (stereo not shown) [Comparative compound 6]
mortality at 12.5 ppm ([1]; foliar spraying): 50% | mortality at 50 ppm ([1]; foliar spraying): 100%

CC(CC#N)[n+]1c([O-])c(-c2cccc(C(F)(F)F)c2)c(=O)n2ccccc21 (stereo not shown) [Comparative compound 7]
mortality at 200 ppm [1]: 0%

N#CCC[n+]1c([O-])c(-c2ccccc2)c(=O)n2ccccc21 [Compound 1, 1-(2-cyanoethyl)-2-hydroxy-4-oxo-3-phenyl-4H-pyrido[1,2-a]pyrimidinium inner salt]
mortality at 200 ppm [1]: ≥ 80% | mortality at 0.012 ppm ([2]; 0.012 ppm): 50% | mortality at 0.024 ppm ([2]; 0.024 ppm): 60% | mortality at 0.049 ppm ([2]; 0.049 ppm): 70% | mortality at 200 ppm [2]: ≥ 80% | mortality at 200 ppm [3]: ≥ 80%

COc1cccc(-c2c([O-])[n+](CCC#N)c3ccccn3c2=O)c1 [Compound 18, 1-(2-cyanoethyl)-2-hydroxy-3-(3-methoxyphenyl)-4-oxo-4H-pyrido[1,2-a]pyrimidinium inner salt]
mortality at 200 ppm [1]: ≥ 80% | mortality at 0.01 ppm [2]: 10% | mortality at 0.02 ppm [2]: 20% | mortality at 0.05 ppm [2]: 100% | mortality at 200 ppm [2]: ≥ 80% | Mortality of Thrips palmi (%) ([3]; 3.1 ppm): 100% | Mortality of Thrips palmi (%) ([3]; 12.5 ppm): 100% | Mortality of Thrips palmi (%) ([3]; 50 ppm): 100% | mortality at 200 ppm [3]: ≥ 80%

CCOc1cccc(-c2c([O-])[n+](CCC#N)c3ccccn3c2=O)c1 [Compound 21, 1-(2-cyanoethyl)-3-(3-ethoxyphenyl)-2-hydroxy-4-oxo-4H-pyrido[1,2-a]pyrimidinium inner salt]
mortality at 200 ppm [1]: ≥ 80% | mortality at 0.01 ppm [2]: 10% | mortality at 0.02 ppm [2]: 70% | mortality at 0.05 ppm [2]: 80% | mortality at 200 ppm [2]: ≥ 80% | mortality at 200 ppm [3]: ≥ 80%

Cc1cccn2c(=O)c(-c3cc(Cl)cc(Cl)c3)c([O-])[n+](Cc3cnc(Cl)s3)c12 [Dicloromezotiaz]
mortality at 12.5 ppm ([1]; foliar spraying): 0% | mortality at 50 ppm ([1]; foliar spraying): 90% | mortality at 200 ppm [1]: 100% | mortality at 200 ppm ([4]; 200 ppm, root dipping of rice seedlings, larvae released after 2 days): 0% | mortality at 200 ppm [2]: 0% | mortality at 200 ppm [3]: 0%

N#Cc1nn(-c2c(Cl)cc(C(F)(F)F)cc2Cl)c(N)c1[S+]([O-])C(F)(F)F (stereo not shown) [Fipronil, reference compound]
Density index of Nilaparvata lugens [5, 10]: 0 | Density index of Nilaparvata lugens [5, 11]: 5.4 | Density index of Nilaparvata lugens [5, 12]: 56.2 | Density index of Nilaparvata lugens [5, 13]: 73.9 | Density index of Nilaparvata lugens [5, 14]: 105 | Density index of Nilaparvata lugens [5, 15]: 98.4

O=c1c(-c2cccc(C(F)(F)F)c2)c([O-])[n+](Cc2cncnc2)c2ccccn12 [Triflumezopyrim, reference compound]
Density index of Nilaparvata lugens [5, 10]: 2.5 | Density index of Nilaparvata lugens [5, 11]: 5.4 | Density index of Nilaparvata lugens [5, 12]: 45.1 | Density index of Nilaparvata lugens [5, 13]: 56.7 | Density index of Nilaparvata lugens [5, 14]: 63.9 | Density index of Nilaparvata lugens [5, 15]: 92.2 | mortality at 125 g/ha ([6]; 125 g/ha): 16.7% | mortality at 250 g/ha ([6]; 250 g/ha): 50% | mortality at 500 g/ha ([6]; 500 g/ha as wettable powder at rice roots): 66.7% | mortality at 0.2 ppm ([1]; 0.20 ppm, foliar spraying): 0% | mortality at 0.39 ppm ([1]; 0.39 ppm, foliar spraying): 60% | mortality at 0.78 ppm ([1]; 0.78 ppm, foliar spraying): 85% | Number of abnormal insects [7, 16]: 5 | Number of dead insects [7, 16]: 4 | Number of normal insects [7, 16]: 6 | Total number of sheaths formed by stylet insertion ([7]; fruit stained with fuchsine after examination): 10 | Proportion of abnormal insects and dead insects on 4 days after releasing insects (%) ([7]; insects released 7 days after treatment): 60.0% | Browning stem ratio (%) ([8]; 500 g/ha as wettable powder (Formulation Example 2) at rice roots, hatchlings released after 4 days): 40% | Ratio to untreated (%) ([8]; browning stem ratio relative to untreated, 500 g/ha): 49% | mortality at 0.05 ppm ([4]; 120 h, 0.05 ppm, root dipping): 0% | mortality at 0.1 ppm ([4]; 120 h, 0.1 ppm, root dipping): 70% | mortality at 0.2 ppm ([4]; 120 h, 0.2 ppm, root dipping): 70% | mortality at 0.4 ppm ([4]; 120 h, 0.4 ppm, root dipping): 70% | mortality at 0.8 ppm ([4]; 120 h, 0.8 ppm, root dipping): 100% | mortality at 1.6 ppm [9]: 0% | mortality at 0.1 ppm ([2]; 0.1 ppm): 10% | mortality at 0.2 ppm ([2]; 0.2 ppm): 70% | Mortality of Thrips palmi (%) ([3]; 12.5 ppm): 0% | Mortality of Thrips palmi (%) ([3]; 50 ppm): 60% | mortality at 200 ppm [3]: 100%

Reference: patent US20180310564A1, “Mesoionic Compound” (Nippon Kayaku Kabushiki Kaisha, priority 2015, published 2018)
